The source of these data is PMC2730737 (Biochemistry, 2009).

One data set concerns the target T1, WT AdoMetDC (Homo sapiens, UniProt P17707).
T1 sequence (P17707 1-67 limits assumed): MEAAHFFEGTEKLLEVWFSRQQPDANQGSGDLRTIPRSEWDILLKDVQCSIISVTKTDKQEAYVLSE
T1 sequence (P17707 68-334 limits assumed): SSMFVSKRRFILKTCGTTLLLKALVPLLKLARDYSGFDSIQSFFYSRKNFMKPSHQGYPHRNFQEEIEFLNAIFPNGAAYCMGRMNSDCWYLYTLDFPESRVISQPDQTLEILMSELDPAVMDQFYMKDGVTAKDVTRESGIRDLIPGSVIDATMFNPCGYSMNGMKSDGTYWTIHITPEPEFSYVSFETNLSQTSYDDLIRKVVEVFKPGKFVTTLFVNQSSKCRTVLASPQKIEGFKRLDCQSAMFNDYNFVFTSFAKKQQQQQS
The experiment in a line: Stopped-flow intrinsic protein fluorescence binding kinetics, WT AdoMetDC. Particulars: for intrinsic fluorescence change on rapid mixing with AdoMetDC: stopped-flow, excitation 298 nm, emission 340 nm.

The next data set addresses T2, AdoMetDC F223A mutant (Homo sapiens, UniProt P17707, F223A).
T2 sequence (P17707 1-67 limits assumed): T1 sequence (P17707 1-67 limits assumed)
T2 sequence (P17707 68-334 F223A limits assumed): T1 sequence (P17707 68-334 limits assumed) with F156A
The experiment in a line: Stopped-flow intrinsic protein fluorescence binding kinetics, F223A mutant. Particulars: single exponential fit.

For data set [1] the following is noted: modeling studies using NMR constraints, molecular mechanics; cited from earlier work.
For the next data set, the target named is T3, AdoMetDC (Homo sapiens, UniProt P17707).
T3 sequence (P17707 1-67 limits assumed): T1 sequence (P17707 1-67 limits assumed)
T3 sequence (P17707 68-334 limits assumed): T1 sequence (P17707 68-334 limits assumed)
Particulars: cited from earlier work.

A word on the IC50: it is the concentration needed to halve the response being measured.

Residue numbers refer to the chain shown, from its start.

For `C[S+](CC[C@H](N)C(=O)[O-])C[C@H]1O[C@@H](n2cnc3c(N)ncnc32)[C@H](O)[C@@H]1O` (stereo partly drawn) [AdoMet, S-adenosylmethionine], the “k2 + k−2” value at WT AdoMetDC (WT enzyme, hyperbolic fit of slow phase) was determined as 3.7 ± 0.2 s⁻¹. The “k−1” value at WT AdoMetDC (WT enzyme, linear fit of fast phase, 25 °C, pH 7.5) was determined as 33 ± 2 s⁻¹. Also, the “intrinsic fluorescence change on rapid mixing with AdoMetDC” value (shortened to “intrinsic fluorescence change”) at WT AdoMetDC is given as “intrinsic fluorescence change was observed”. In addition, on AdoMetDC F223A mutant, the “k1 (slope)” value is given as 1.7 ± 0.3 × 10^−4 μM^−1s^−1 and the “k−1 (y-intercept)” value stood at 2.4 ± 0.2 s⁻¹. Also, the “energy difference between the anti and syn conformations in solution” value in data set [1] was -34 kcal/mol.
In the case of `C[S+](C)C[C@H]1O[C@@H](n2cnc3c(N)ncnc32)[C@H](O)[C@@H]1O` [MMTA, 5′-deoxy-5′-(dimethylsulfonio)adenosine], on WT AdoMetDC, the “intrinsic fluorescence change” value is on record as “too weak to measure”. Moreover, on AdoMetDC, the IC50 was 15 µM.
In the case of `Nc1ncnc2c1ncn2[C@@H]1O[C@H](CSCC[C@H](N)C(=O)O)[C@@H](O)[C@H]1O` [SAH, S-adenosylhomocysteine], the “intrinsic fluorescence change” value on WT AdoMetDC is on record as “no significant change”.
